Laboratory results reported in patent publication US20260049103A1, “PEPTIDE, AND COMPOSITION THEREOF AND USE THEREOF” (WINKEY TECHNOLOGY USA INC, priority 2023, published 2026).
Non-standard residues stand in square brackets, D forms with d. *: point of attachment. Palmitoyl = CCCCCCCCCCCCCCCC(=O)*; Nle = CCCC[C@H](N)C(=O)O

How the values were obtained:
[1] = system: Human keratinocytes (HaCaT); assay: Cell proliferation assay (MTT) in HaCaT cells; type: cell-based; settings: FIG. 6; for cell activity / proliferation of HaCaT keratinocytes: 72 h, at low concentrations (tested 6.25, 12.5, 25 ppm)
Excerpt: Thiazolyl blue (MTT), dimethyl sulfoxide (DMSO), DMEM culture medium, fetal bovine serum, and PBS.
(§1) Human keratinocytes (HaCaT) were purchased from the Kunming Cell Bank of China Center for Type Culture Collection under the Chinese Academy of Sciences.
Polypeptide group: Peptide (4), peptide (9), peptide (13) and peptide (20). The test concentrations of all the above samples were 6.25 ppm, 12.5 ppm and 25 ppm.
(§2) Blank control group: PBS.
Positive control group: 2% DMSO.
Cells in good exponential growth phase were taken. A 0.25% trypsin digestion solution was added so that digestion allowed the adherent cells to fall off, counting 1 to 4×10^5 cells/mL, which were prepared into a cell suspension.
The cell suspension was inoculated into a 96-well plate with 200 μL/well, and cultured in a constant-temperature CO2 incubator for 24 h.
After changing the medium, samples of the polypeptide groups, the blank control group and the positive control group were added at 20 μL/well respectively, and incubated in a 5% CO2 incubator at 37° C. for 72 h.
20 μL of 5 mg/mL MTT was added to each well and the incubation was continued in the 5% CO2 incubator at 37° C. for 4 h. The original solution was removed and 150 μL/well of DMSO was added. After shaking the plate on a plate shaker for 5 min, a microplate reader was used to determine the OD value of each well at a wavelength of 570 nm, and the cell viability was calculated.
Cell viability=[OD (test sample well)−OD (zero adjustment well)]/[OD (blank control well)−OD (zero adjustment well)]×100%
The MTT assay is a method of detecting cell survival and growth. The measured OD values are directly proportional to cell viability. The higher the cell viability, the larger the OD value.

hyaluronic acid = assay: Determination of hyaluronic acid content in HaCaT cells; type: cell-based, Human; settings: 12.5 ppm, 48 h, compared with blank control, FIG. 9
Method: as §1
Polypeptide group: Peptide (4), peptide (13) and peptide (20). The test concentrations of all the above samples were 12.5 ppm.
as §2
A bottle of HaCaT cells in good exponential growth phase was taken. A 0.25% trypsin digestion solution was added so that digestion allowed the adherent cells to fall off, counting 1 to 4×10^6 cells/mL, which were prepared into a cell suspension.
The cells were inoculated into a 6-well plate at 10^5 cells/well, and grouped when the cells reached approximately 80% confluence. […]
After completion of the culture, cells were scraped off using a cell scraper, and 200 μL of RIPA lysis buffer was added to extract proteins. […] The total protein concentration was quantified to 1 mg/mL using the BCA method. […] The OD value of each well was measured in sequence at 570 nm using a microplate reader within 15 min.
Hyaluronic acid is one of the main matrix ingredients of the human skin epidermis and an important component of the skin barrier. […] This experiment measured the effect of the peptide of the present invention on the hyaluronic acid content to determine whether the peptide of the invention can increase the hyaluronic acid content and thus play a role in moisturizing and anti-aging repair.

filaggrin (FLG) = assay: Filaggrin expression experiment (UV-irradiated HaCaT cells); type: cell-based, Human; settings: 80 mJ/cm^2 UV, 24 h, 10-50 ppm, compared with UV group, fluorescence staining, FIG. 10
Method: as §1
Polypeptide group: Peptide (4), peptide (9), peptide (13) and peptide (20). The test concentrations of all the above samples were 10 ppm and 50 ppm.
as §2
UV group: UV radiation with PBS.
The frozen HaCaT cells were cultured and passaged at a ratio of 1:2 to about the 5th generation, and the cells in better growth were selected as experiment subjects. The cell suspension was taken and inoculated into a 96-well plate at 10^4 cells/well, complete culture medium was added, and the mixture was cultured in a 5% CO2 incubator at 37° C. for 24 h. A UV photoaging model was established when the cells reached approximately 80% confluence. […]
After incubation, the cells were digested, grown on a cell climbing slice for 12 hours and then fixed. The cells were stained using a filaggrin (FLG) detection kit and observed under a fluorescence microscope after staining.
Filaggrin (FLG) is an important molecule that links keratin fibers in the stratum corneum of human skin. […] In this experiment, 80 mJ/cm^2 UV energy was selected for radiation to establish a skin stratum corneum cell model, and the effect of the sample on FLG expression was detected to analyze whether the peptides of the present invention can promote FLG expression.

hyaluronidase = assay: Hyaluronidase inhibition experiment; type: biochemical; settings: FIG. 11; for hyaluronidase inhibition rate: at 100 ppm; for inhibition of hyaluronidase activity: at the tested concentrations (50 ppm and 100 ppm)
Excerpt: Spectrophotometer, phosphate buffered saline (PBS), hyaluronic acid, and hyaluronidase.
Peptide (13) and peptide (14). The test concentrations of all the above samples were 50 ppm and 100 ppm.
The experiment was divided into four groups: blank control group A1 (PBS+hyaluronidase), enzyme-free blank control group A2 (PBS+solvent without hyaluronidase), sample group B1 (samples to be tested+hyaluronidase), and enzyme-free sample group B2 (samples to be tested+solvent without hyaluronidase). The total reaction volume of each group was the same.
According to the grouping, 100 μL of CaCl2) (2.5 mmol/L) was mixed with 500 μL of hyaluronidase (500 U/mL) or solvent without hyaluronidase, and 20 μL of the mixture was taken and shaken in a 37° C. constant temperature gas bath oscillator for 20 min. The blank control group was added with 20 μL of PBS and shaken in a 37° C. constant temperature gas bath oscillator for 20 min. The sample groups were added with 20 μL of samples at different concentrations and shaken in a 37° C. constant temperature gas bath oscillator for 20 min. The above groups were added with 40 μL of hyaluronic acid and shaken in a 37° C. constant temperature gas bath oscillator for 40 min. 10 μL of acetylacetone solution was added and shaken in a 50° C. constant temperature gas bath oscillator for 10 min, then placed in an oven at 75° C. for 40 min and at 50° C. for 10 min. After the reaction was completed and cooled, the plastic wrap was quickly removed to avoid the generation of water vapor. Then 100 μL of 96% anhydrous ethanol and 10 μL of Ehrlich reagent were added, and the absorbances were measured at 492 nm.
Hyaluronidase can decompose hyaluronic acid in the body, converting it into low-molecular-weight acidic irritant, thereby causing the release of histamine and inducing sensitive symptoms in the body. In addition, the reduction of hyaluronic acid will destroy the skin barrier function, leading to the loss of moisture inside the skin. Therefore, inhibiting the activity of hyaluronidase can achieve the effects of soothing, moisturizing and repairing the skin barrier.

| Molecule | cell activity / proliferation of HaCaT keratinocytes [1] | hyaluronic acid content (hyaluronic acid) | hyaluronidase inhibition rate (hyaluronidase) | inhibition of hyaluronidase activity (hyaluronidase) | also measured |
| --- | --- | --- | --- | --- | --- |
| Palm-Val-Lys-Leu-Tyr-Gly-Ser-NH2 (Palmitoyl-VKLYGS-NH2; SMILES CCCCCCCCCCCCCCCC(=O)N[C@H](C(=O)N[C@@H](CCCCN)C(=O)N[C@@H](CC(C)C)C(=O)N[C@@H](Cc1ccc(O)cc1)C(=O)NCC(=O)N[C@@H](CO)C(N)=O)C(C)C) [peptide (9)] | significantly improve cell activity |  |  |  |  |
| C[S+](C)[O-] [2% DMSO, dimethyl sulfoxide, reference compound] |  |  |  |  | toxic effect on HaCaT cells (cell viability) ([1]; 72 h incubation, peptides at 6.25, 12.5 and 25 ppm, compared with blank control (PBS)): had a toxic effect on HaCaT cells |
| Palmitoyl-G[Nle]RLY-NH2 [peptide (20)] | significantly improve cell activity | more superior technical effects |  |  |  |
| Palm-Lys-Val-Lys-Leu-Tyr-NH2 (Palmitoyl-KVKLY-NH2; SMILES CCCCCCCCCCCCCCCC(=O)N[C@@H](CCCCN)C(=O)N[C@H](C(=O)N[C@@H](CCCCN)C(=O)N[C@@H](CC(C)C)C(=O)N[C@@H](Cc1ccc(O)cc1)C(N)=O)C(C)C) [peptide (13)] |  |  | 49.40% | inhibited the activity of hyaluronidase | FLG content / FLG expression (filaggrin (FLG)): optimum technical effect |
| Palmitoyl-G[Nle]KLY-NH2 [peptide (4)] |  | more superior technical effects |  |  |  |
| Palm-Lys-Val-Lys-Leu-Tyr-OH (Palmitoyl-KVKLY-OH; SMILES CCCCCCCCCCCCCCCC(=O)N[C@@H](CCCCN)C(=O)N[C@H](C(=O)N[C@@H](CCCCN)C(=O)N[C@@H](CC(C)C)C(=O)N[C@@H](Cc1ccc(O)cc1)C(=O)O)C(C)C) [peptide (14)] |  |  | 40.96% | inhibited the activity of hyaluronidase |  |
